Assay results taken from US20210253557A1, “SUBSTITUTED TRIAZOLE DERIVATIVES AND USES THEREOF” (Bayer Pharma Aktiengesellschaft, priority 2017, published 2021).
pIC50: −log10 of the molar value.

Key:
human V2 receptor = target: T1, human V2 receptor (Homo sapiens, UniProt P30518); assay: Cellular in vitro assay for determining vasopressin receptor activity (V2, CRE-luciferase); assay type: cell-based; details: CHO cell line transfected with the human V2 receptor; [Arg8]-vasopressin at EC50 concentration; read-out: IC50 hV2
T1 construct: expressed in transfected cells; host or cells: CHO K1 (ATCC) expressing firefly luciferase under a CRE-responsive promoter
T1 sequence (P30518 whole entry): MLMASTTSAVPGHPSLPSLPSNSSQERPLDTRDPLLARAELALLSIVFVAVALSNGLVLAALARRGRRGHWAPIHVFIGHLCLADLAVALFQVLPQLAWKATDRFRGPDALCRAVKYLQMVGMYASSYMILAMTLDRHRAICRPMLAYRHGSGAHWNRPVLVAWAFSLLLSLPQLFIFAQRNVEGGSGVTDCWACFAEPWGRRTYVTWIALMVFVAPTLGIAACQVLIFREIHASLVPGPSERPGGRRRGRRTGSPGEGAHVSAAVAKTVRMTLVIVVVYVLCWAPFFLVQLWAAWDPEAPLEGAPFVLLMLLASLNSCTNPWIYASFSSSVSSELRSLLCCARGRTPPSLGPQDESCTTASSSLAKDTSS
Protocol: (§1) B-1. Cellular In Vitro Assay for Determining Vasopressin Receptor Activity
(§2) The identification of agonists and antagonists of the V1a and V2 vasopressin receptors from humans, rats and dogs as well as the quantification of the activity of the compounds of the invention is carried out using recombinant cell lines. These cell lines originally derive from a hamster's ovary epithelial cell (Chinese Hamster Ovary, CHO K1, ATCC: American Type Culture Collection, Manassas, Va. 20108, USA). The test cell lines constitutively express the human, rat or dog V1a or V2 receptors. In case of the Gαq-coupled V1a receptors, cells are also stably transfected with a modified form of the calcium-sensitive photoproteins aequorin (human and rat V1a) or obelin (dog V1a), which, after reconstitution with the cofactor coelenterazine, emit light when there are increases in free calcium concentrations [Rizzuto R, Simpson A W, Brini M, Pozzan T, Nature 358, 325-327 (1992); Illarionov B A, Bondar V S, Illarionova V A, Vysotski E S, Gene 153 (2), 273-274 (1995)]. The resulting vasopressin receptor cells react to stimulation of the recombinantly expressed V1a receptors by intracellular release of calcium ions, which can be quantified by the resulting photoprotein luminescence. The Gs-coupled V2 receptors are stably transfected into cell lines expressing the gene for firefly luciferase under control of a CRE-responsible promoter. Activation of V2 receptors induces the activation of the CRE-responsive promoter via cAMP increase, thereby inducing the expression of firefly luciferase. The light emitted by photoproteins of V1a cell lines as well as the light emitted by firefly luciferase of V2 cell lines corresponds to the activation or inhibition of the respective vasopressin receptor. The bioluminescence of the cell lines is detected using a suitable luminometer [Milligan G, Marshall F, Rees S, Trends in Pharmacological Sciences 17, 235-237 (1996)].
Vasopressin V2 receptor cell lines:
On the day before the assay, the cells are plated out in culture medium (DMEM/F12, 2% FCS, 2 mM glutamine, 10 mM HEPES) in 384-well microtiter plates and kept in a cell incubator (96% humidity, 5% v/v CO2, 37° C.). On the day of the assay, test compounds in various concentrations and the agonist [Arg^8]-vasopressin at EC50 concentration are added together to the wells, and plates are incubated for 3 hours in a cell incubator. Upon addition of the cell lysis reagent Triton™ and the substrate luciferin, luminescence of firefly luciferase is measured in a luminometer.
(§3) Table 1A below lists individual IC50 values for the compounds of the invention (including racemic mixtures as well as separated enantiomers) that were obtained from cell lines transfected with the human V1a or V2 receptor: […]

human V1a receptor = target: T2, human V1a receptor (Homo sapiens, UniProt P37288); assay: Cellular in vitro assay for determining vasopressin receptor activity (V1a, aequorin luminescence); assay type: cell-based; details: for pIC50: CHO cell line transfected with the human V1a receptor, [Arg8]-vasopressin at EC50 concentration, read-out: IC50 hV1a; for ratio IC50 hV2/hV1a: selectivity ratio of IC50 hV2 to IC50 hV1a
T2 construct: expressed in transfected cells; host or cells: CHO K1 (ATCC), also stably transfected with a modified aequorin
T2 sequence (P37288 whole entry): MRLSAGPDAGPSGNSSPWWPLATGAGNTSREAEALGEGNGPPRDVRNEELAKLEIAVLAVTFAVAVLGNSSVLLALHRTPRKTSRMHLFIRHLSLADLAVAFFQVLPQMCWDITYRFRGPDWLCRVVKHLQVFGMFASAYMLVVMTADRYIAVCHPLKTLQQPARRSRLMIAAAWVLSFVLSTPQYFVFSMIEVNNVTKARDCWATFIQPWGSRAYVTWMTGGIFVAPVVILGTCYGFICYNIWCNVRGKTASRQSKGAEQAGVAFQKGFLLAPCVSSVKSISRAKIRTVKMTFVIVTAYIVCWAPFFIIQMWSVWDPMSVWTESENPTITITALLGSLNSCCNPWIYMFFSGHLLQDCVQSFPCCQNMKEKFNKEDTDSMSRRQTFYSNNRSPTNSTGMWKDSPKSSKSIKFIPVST
Protocol: as §1, §2
Vasopressin V1a receptor cell lines:
On the day before the assay, the cells are plated out in culture medium (DMEM/F12, 2% FCS, 2 mM glutamine, 10 mM HEPES, 5 μg/ml coelenterazine) in 384-well microtiter plates and kept in a cell incubator (96% humidity, 5% v/v CO2, 37° C.). On the day of the assay, test compounds in various concentrations are placed for 10 minutes in the wells of the microtiter plate before the agonist [Arg^8]-vasopressin at EC50 concentration is added. The resulting light signal is measured immediately in a luminometer.
as §3

pIC50 (human V2 receptor) | pIC50 (human V1a receptor) | ratio IC50 hV2/hV1a (human V1a receptor) | SMILES
5.90 | 5.86 | 0.9 | CNc1ccncc1-n1nc(Cn2nc(-c3ccc(Cl)cc3)n(C[C@H](O)C(F)(F)F)c2=O)nc1C(C)NC(C)=O (single isomer, unassigned) [Example 126]
8.45 | 9.19 | 5.5 | Cc1ccccc1-n1nc(Cn2nc(-c3ccc(Cl)cc3)n(C[C@H](OC(N)=O)C(F)(F)F)c2=O)nc1COC(N)=O [Example 38, (2S)-3-[1-({5-[(Carbamoyloxy)methyl]-1-(2-methylphenyl)-1H-1,2,4-triazol-3-yl}methyl)-3-(4-chlorophenyl)-5-oxo-1,5-dihydro-4H-1,2,4-triazol-4-yl]-1,1,1-trifluoropropan-2-yl Carbamate]
8.56 | 9.19 | 4.3 | C[C@H](OC(N)=O)c1nc(Cn2nc(-c3ccc(Cl)cc3)n(C[C@H](OC(N)=O)C(F)(F)F)c2=O)nn1-c1ccccc1Cl [Example 34, (2S)-3-[1-({5-[(1S)-1-(Carbamoyloxy)ethyl]-1-(2-chlorophenyl)-1H-1,2,4-triazol-3-yl}methyl)-3-(4-chlorophenyl)-5-oxo-1,5-dihydro-4H-1,2,4-triazol-4-yl]-1,1,1-trifluoropropan-2-yl Carbamate]
6.76 | 8.51 | 56.4 | CN1C(=O)CC[C@@H]1c1nc(Cn2nc(-c3ccc(Cl)cc3)n(C[C@H](O)C(F)(F)F)c2=O)nn1-c1ncccc1Cl (single isomer, unassigned) [Example 104]
6.84 | 8.00 | 14.4 | C[C@H](OC(N)=O)c1nc(Cn2nc(-c3ccc(Cl)cc3)n(C[C@H](O)C(F)(F)F)c2=O)nn1-c1ncccc1OC(F)(F)F [Example 22, (1S)-1-{3-({3-(4-Chlorophenyl)-5-oxo-4-[(2S)-3,3,3-trifluoro-2-hydroxypropyl]-4,5-dihydro-1H-1,2,4-triazol-1-yl}methyl)-1-[3-(trifluoromethoxy)pyridin-2-yl]-1H-1,2,4-triazol-5-yl}ethyl Carbamate]
7.45 | 8.65 | 15.8 | CS(=O)(=O)NC(CO)c1nc(Cn2nc(-c3ccc(Cl)cc3)n(C[C@H](O)C(F)(F)F)c2=O)nn1-c1ccccc1Cl (single isomer, unassigned) [Example 87]
8.32 | 8.28 | 0.9 | NC(=O)OCc1nc(Cn2nc(-c3ccc(Cl)cc3)n(C[C@H](O)C(F)(F)F)c2=O)nn1-c1cccc(F)c1 [Example 26, [3-({3-(4-Chlorophenyl)-5-oxo-4-[(2S)-3,3,3-trifluoro-2-hydroxypropyl]-4,5-dihydro-1H-1,2,4-triazol-1-yl}methyl)-1-(3-fluorophenyl)-1H-1,2,4-triazol-5-yl]methyl Carbamate]
8.05 | 9.15 | 12.5 | CC(=O)NC(CO)c1nc(Cn2nc(-c3ccc(Cl)cc3)n(C[C@H](O)C(F)(F)F)c2=O)nn1-c1ccccc1Cl (mixture of isomers) [Example 91, N-{1-[1-(2-Chlorophenyl)-3-({3-(4-chlorophenyl)-5-oxo-4-[(2S)-3,3,3-trifluoro-2-hydroxypropyl]-4,5-dihydro-1H-1,2,4-triazol-1-yl}methyl)-1H-1,2,4-triazol-5-yl]-2-hydroxyethyl}acetamide]
7.76 | 8.72 | 9.2 | C[C@H](OC(N)=O)c1nc(Cn2nc(-c3ccc(Cl)cc3)n(C[C@H](O)C(F)(F)F)c2=O)nn1-c1cnccc1Cl [Example 21, (1S)-1-[3-({3-(4-Chlorophenyl)-5-oxo-4-[(2S)-3,3,3-trifluoro-2-hydroxypropyl]-4,5-dihydro-1H-1,2,4-triazol-1-yl}methyl)-1-(4-chloropyridin-3-yl)-1H-1,2,4-triazol-5-yl]ethyl Carbamate]
8.65 | 9.46 | 6.4 | CS(=O)(=O)NC(CO)c1nc(Cn2nc(-c3ccc(Cl)cc3)n(C[C@H](O)C(F)(F)F)c2=O)nn1-c1ccccc1Cl (mixture of isomers) [Example 85, N-{1-[1-(2-Chlorophenyl)-3-({3-(4-chlorophenyl)-5-oxo-4-[(2S)-3,3,3-trifluoro-2-hydroxypropyl]-4,5-dihydro-1H-1,2,4-triazol-1-yl}methyl)-1H-1,2,4-triazol-5-yl]-2-hydroxyethyl}-methanesulfonamide]
8.71 | 7.67 | 0.1 | COC(=O)N[C@@H](C)c1nc(Cn2nc(-c3ccc(Cl)cc3)n(C[C@H](O)C(F)(F)F)c2=O)nn1-c1cccc(Cl)c1 [Example 58, Methyl {(1S)-1-[1-(3-chlorophenyl)-3-({3-(4-chlorophenyl)-5-oxo-4-[(2S)-3,3,3-trifluoro-2-hydroxypropyl]-4,5-dihydro-1H-1,2,4-triazol-1-yl}methyl)-1H-1,2,4-triazol-5-yl]ethyl}Carbamate]
8.92 | 9.60 | 4.8 | O=C1CC[C@@H](c2nc(Cn3nc(-c4ccc(Cl)cc4)n(C[C@H](O)C(F)(F)F)c3=O)nn2-c2ccccc2Cl)N1 [Example 102, 5-(4-Chlorophenyl)-2-({1-(2-chlorophenyl)-5-[(2S)-5-oxopyrrolidin-2-yl]-1H-1,2,4-triazol-3-yl}methyl)-4-[(2S)-3,3,3-trifluoro-2-hydroxypropyl]-2,4-dihydro-3H-1,2,4-triazol-3-one]
7.28 | 8.76 | 29.7 | C[C@H](OC(N)=O)c1nc(Cn2nc(-c3ccc(Cl)cc3)n(C[C@H](O)C(F)(F)F)c2=O)nn1-c1ncccc1Cl [Example 14, (1S)-1-[3-({3-(4-Chlorophenyl)-5-oxo-4-[(2S)-3,3,3-trifluoro-2-hydroxypropyl]-4,5-dihydro-1H-1,2,4-triazol-1-yl}methyl)-1-(3-chloropyridin-2-yl)-1H-1,2,4-triazol-5-yl]ethyl Carbamate]
5.76 | 7.73 | 93.5 | CN1C(=O)CCC1c1nc(Cn2nc(-c3ccc(Cl)cc3)n(C[C@H](O)C(F)(F)F)c2=O)nn1CCC(F)(F)F (single isomer, unassigned) [Example 132]
8.13 | 8.97 | 6.8 | COc1ccccc1-n1nc(Cn2nc(-c3ccc(Cl)cc3)n(C[C@H](OC(N)=O)C(F)(F)F)c2=O)nc1C(C)OC(N)=O (single isomer, unassigned) [Example 42]
6.87 | 7.50 | 4.3 | C[C@H](OC(N)=O)c1nc(Cn2nc(-c3ccc(Cl)cc3)n(C[C@H](O)C(F)(F)F)c2=O)nn1-c1ccccc1S(N)(=O)=O [Example 9, (1S)-1-[3-({3-(4-Chlorophenyl)-5-oxo-4-[(2S)-3,3,3-trifluoro-2-hydroxypropyl]-4,5-dihydro-1H-1,2,4-triazol-1-yl}methyl)-1-(2-sulfamoylphenyl)-1H-1,2,4-triazol-5-yl]ethyl Carbamate]

SMILES | pIC50 (human V2 receptor) | pIC50 (human V1a receptor) | ratio IC50 hV2/hV1a (human V1a receptor)
CC(C)(C)OCC(N)c1nc(Cn2nc(-c3ccc(Cl)cc3)n(C[C@H](O)C(F)(F)F)c2=O)nn1-c1ccccc1Cl (mixture of isomers) [Example 80, 2-({5-[1-Amino-2-tert-butoxyethyl]-1-(2-chlorophenyl)-1H-1,2,4-triazol-3-yl}methyl)-5-(4-chlorophenyl)-4-[(2S)-3,3,3-trifluoro-2-hydroxypropyl]-2,4-dihydro-3H-1,2,4-triazol-3-one] | 7.72 | 9.21 | 31.4
